According to article PMC8188729 (Nature, 2020):
“And” between values parts separate entries of the source, which are not always exact repeats. Equal entries are not always repeated. Where two headings read alike, the source gives them in different places.

Assays:
CA hexamer_M66I = CA hexamer_M66I (Human immunodeficiency virus type 1 group M subtype B, UniProt P12493, A146C/E177C/M198I/M317A/W316A); experiment: Surface plasmon resonance binding assay; parameters: species or system HIV-1
Cytotoxicity assay [1] = format: cell-based; conditions: human, Gal-PC-3 cells
HIV-2 isolates = experiment: 7-day RT endpoint antiviral assay in human PBMCs, HIV-2 isolates; conditions: Human immunodeficiency virus 2, PBMC, read-out: mean EC50
HIV-1 PR = HIV-1 PR (Human immunodeficiency virus type 1 group M subtype B, UniProt P04585); experiment: HIV-1 PR cleavage activity in vitro; format: biochemical
Cytotoxicity assay [2] = format: cell-based; conditions: human, monocyte-derived macrophages
CA pentamer = CA pentamer (Human immunodeficiency virus type 1 group M subtype B, UniProt P12493, A154C/M317A/N153C/W316A); experiment: biochemical; format: binding
Gag polyprotein = Gag polyprotein (Human immunodeficiency virus type 1 group M subtype B, UniProt P12493); experiment: biochemical; format: binding
HIV-1 capsid = experiment: Study GS-US-200-4072: HIV-1 resistance analyses; conditions: in vivo
HIV-1 CA mutants = format: cell-based; conditions: mutant/WT EC50 ratio
HIV-1 = format: in vivo; conditions: for Maximum HIV-1 RNA change through day 9: individual participants
Cytotoxicity assay [3] = format: cell-based; conditions: human, MRC-5 cells
[4] = Study GS-US-200-4072: safety in participants living with HIV; format: in vivo, human; conditions: for Any AE / Arthralgia / Constipation / Haemorrhoids / Headache / Injection site erythema / Injection site induration / Injection site nodule / Injection site pain / Nasopharyngitis / Nausea / Oropharyngeal pain / Rash / Serious AE: Atrial fibrillation / Syphilis / Upper respiratory tract infection / Vomiting: PLWH
Cytotoxicity assay [5] = format: cell-based; conditions: human, primary human hepatocytes
Stimulated PBMCs = experiment: Cytotoxicity assay; format: cell-based, human; conditions: PBMCs
Cytotoxicity assay [6] = format: cell-based, human; conditions: human, stimulated PBMCs
[7] = format: in vivo, human; conditions: for AUCexp: healthy volunteers, mean (%CV); for time plasma concentrations exceeded paEC95: single SC, healthy participants
CA hexamer = CA hexamer (Human immunodeficiency virus type 1 group M subtype B, UniProt P12493, A146C/E177C/M317A/W316A); experiment: Surface plasmon resonance binding assay; parameters: species or system HIV-1
HIV-1BaL = experiment: p24 endpoint antiviral assay in primary human CD4+ T-lymphocytes; format: cell-based; conditions: Human immunodeficiency virus 1, CD4+ T, read-out: mean EC50
[8] = system: single-cycle reporter HIV-1; experiment: microbe, parasite or virus in culture; format: cell-based
clinical HIV-1 isolates = experiment: 7-day RT endpoint antiviral assay in human PBMCs, clinical HIV-1 isolates; conditions: Human immunodeficiency virus 1, PBMC
[9] = Study GS-US-200-4072: pharmacokinetics in participants living with HIV; format: in vivo, human; conditions: for CD9 / paEC95 (mean), fold EC95 coverage on day 9: PLWH; for concentration at 9 day: both, human, plasma, sc
Cytotoxicity assay [10] = format: cell-based; conditions: human, quiescent PBMCs
HIV-1 CA protein = format: biochemical; conditions: 20 μM CA, 2 M NaCl
[11] = GS-6207 20 mg or Placebo (n = 8)
[12] = GS-6207 50 mg or Placebo (n = 8)
[13] = both, human, plasma, sc, 100 mg
[14] = both, human, plasma, sc, 300 mg
[15] = both, human, plasma, sc, 450 mg

SMILES: CC(C)(C#Cc1ccc(-c2ccc(Cl)c3c(NS(C)(=O)=O)nn(CC(F)(F)F)c23)c([C@H](Cc2cc(F)cc(F)c2)NC(=O)Cn2nc(C(F)(F)F)c3c2C(F)(F)[C@@H]2C[C@H]32)n1)S(C)(=O)=O [GS-6207]
- Kd (CA hexamer_M66I): 60 nM
- koff (CA hexamer_M66I; CA hexamer_M66I): 2.6 ± 0.3 x 10^−3 s^−1
- kon (CA hexamer_M66I; CA hexamer_M66I): 6 ± 4 x 10^4 M^−1s^−1
- CC50 (Cytotoxicity assay [1]): > 44.4 µM
- EC50 (HIV-2 isolates): 0.885 nM
- IC50 (HIV-1 PR): > 50 µM
- CC50 (Cytotoxicity assay [2]): > 50 µM
- Kd (CA pentamer): 0.22 ± 0.16 nM
- koff (CA pentamer; CA pentamer): 2.7 ± 0.4 x 10^−5 s^−1
- kon (CA pentamer; CA pentamer): 2 ± 1 x 10^5 M^−1s^−1
- Kd (Gag polyprotein): 1.1 nM
- decrease in phenotypic susceptibility (HIV-1 capsid): 1.6 fold
- Fold GS-6207 resistance (HIV-1 CA mutants; HIV-1 CA K70N): 24
- Fold GS-6207 resistance (HIV-1 CA mutants; HIV-1 CA L56I): 239
- Fold GS-6207 resistance (HIV-1 CA mutants; HIV-1 CA M66I): >3,226
- Fold GS-6207 resistance (HIV-1 CA mutants; HIV-1 CA N74D): 22
- Fold GS-6207 resistance (HIV-1 CA mutants; HIV-1 CA Q67H): 6
- Fold GS-6207 resistance (HIV-1 CA mutants; HIV-1 CA WT): 1
- Maximum HIV-1 RNA change through day 9 (HIV-1; 20 mg): −0.83 log10 copies ml^−1 and −1.58 log10 copies ml^−1 and −1.74 log10 copies ml^−1 and −1.43 log10 copies ml^−1 and −1.33 log10 copies ml^−1 and −1.21 log10 copies ml^−1
- Maximum HIV-1 RNA change through day 9 (HIV-1; 50 mg): −1.55 log10 copies ml^−1 and −1.61 log10 copies ml^−1 and −2.32 log10 copies ml^−1 and −1.16 log10 copies ml^−1 and −1.73 log10 copies ml^−1 and −2.39 log10 copies ml^−1
- Maximum HIV-1 RNA change through day 9 (HIV-1; 150 mg): −2.06 log10 copies ml^−1 and −1.68 log10 copies ml^−1 and −1.86 log10 copies ml^−1 and −1.49 log10 copies ml^−1 and −1.87 log10 copies ml^−1 and −1.62 log10 copies ml^−1
- Maximum HIV-1 RNA change through day 9 (HIV-1; 450 mg): −2.32 log10 copies ml^−1 and −2.86 log10 copies ml^−1 and −2.11 log10 copies ml^−1 and −1.83 log10 copies ml^−1 and −1.58 log10 copies ml^−1 and −2.52 log10 copies ml^−1
- mean maximum reduction in plasma HIV-1 RNA through 9 days (HIV-1; single 20 mg SC): 1.35 log10
- mean maximum reduction in plasma HIV-1 RNA through 9 days (HIV-1; single 50 mg SC): 1.79 log10
- mean maximum reduction in plasma HIV-1 RNA through 9 days (HIV-1; single 150 mg SC): 1.76 log10
- mean maximum reduction in plasma HIV-1 RNA through 9 days (HIV-1; single 450 mg SC): 2.20 log10 and 2.2 log10
- CC50 (Cytotoxicity assay [3]): > 44.4 µM
- Any AE [4, 11]: 5 (63) n (%)
- Arthralgia [4, 11]: 0 n (%)
- Constipation [4, 11]: 0 n (%)
- Haemorrhoids [4, 11]: 0 n (%)
- Headache [4, 11]: 1 (13) n (%)
- Injection site erythema [4, 11]: 1 (13) n (%)
- Injection site induration [4, 11]: 0 n (%)
- Injection site nodule [4, 11]: 0 n (%)
- Injection site pain [4, 11]: 0 n (%)
- Nasopharyngitis [4, 11]: 0 n (%)
- Nausea [4, 11]: 2 (25) n (%)
- Oropharyngeal pain [4, 11]: 1 (13) n (%)
- Rash [4, 11]: 1 (13) n (%)
- Serious AE: Atrial fibrillation [4, 11]: 0 n (%)
- Syphilis [4, 11]: 0 n (%)
- Upper respiratory tract infection [4, 11]: 0 n (%)
- Vomiting [4, 11]: 2 (25) n (%)
- Any AE [4, 12]: 6 (75) n (%)
- Arthralgia [4, 12]: 0 n (%)
- Constipation [4, 12]: 1 (13) n (%)
- Haemorrhoids [4, 12]: 1 (13) n (%)
- Headache [4, 12]: 0 n (%)
- Injection site erythema [4, 12]: 1 (13) n (%)
- Injection site induration [4, 12]: 1 (13) n (%)
- Injection site nodule [4, 12]: 1 (13) n (%)
- Injection site pain [4, 12]: 4 (50) n (%)
- Nasopharyngitis [4, 12]: 0 n (%)
- Nausea [4, 12]: 1 (13) n (%)
- Oropharyngeal pain [4, 12]: 1 (13) n (%)
- Rash [4, 12]: 1 (13) n (%)
- Serious AE: Atrial fibrillation [4, 12]: 0 n (%)
- Syphilis [4, 12]: 1 (13) n (%)
- Upper respiratory tract infection [4, 12]: 0 n (%)
- Vomiting [4, 12]: 1 (13) n (%)
- safety and tolerability ([4]; single SC 20 to 450 mg, participants with untreated HIV-1 infection): generally safe and well tolerated
- CC50 (Cytotoxicity assay [5]): > 50 µM
- therapeutic index (CC50/EC50) (Stimulated PBMCs): > 1,000,000
- CC50 (Cytotoxicity assay [6]): > 50 µM
- AUCexp ([7]; 30 mg SC): 17.6 (69.4) %
- AUCexp ([7]; 100 mg SC): 6.78 (65.0) %
- AUCexp ([7]; 300 mg SC): 5.39 (126) %
- AUCexp ([7]; 450 mg SC): 3.29 (69.9) %
- AUC(0-inf) ([7]; both, human, plasma, sc, 30 mg): 8700 ng·h/mL
- AUC(0-t) ([7]; both, human, plasma, sc, 30 mg): 5500 ng·h/mL
- Cmax ([7]; both, human, plasma, sc, 30 mg): 3.2 ng/mL
- half-life ([7]; both, human, plasma, sc, 30 mg): 37 days
- AUC(0-inf) [7, 13]: 27300 ng·h/mL
- AUC(0-t) [7, 13]: 23600 ng·h/mL
- Cmax [7, 13]: 14.7 ng/mL
- half-life [7, 13]: 31.9 days
- AUC(0-inf) [7, 14]: 86100 ng·h/mL
- AUC(0-t) [7, 14]: 73100 ng·h/mL
- Cmax [7, 14]: 47.9 ng/mL
- half-life [7, 14]: 45.4 days
- AUC(0-inf) [7, 15]: 108000 ng·h/mL
- AUC(0-t) [7, 15]: 97600 ng·h/mL
- Cmax [7, 15]: 58.4 ng/mL
- Tmax [7, 15]: 14 days
- half-life [7, 15]: 39.7 days
- time plasma concentrations exceeded paEC95 ([7]; doses ≥ 100 mg): ≥ 12 weeks
- time plasma concentrations exceeded paEC95 ([7]; doses ≥ 300 mg): > 24 weeks
- duration of sustained plasma exposure at antivirally active concentrations ([7]; single subcutaneous dose 450 mg): > 6 months
- Kd (CA hexamer): 0.24 ± 0.09 nM
- koff (CA hexamer; CA hexamer): 1.4 ± 0.4 x 10^−5 s^−1
- kon (CA hexamer; CA hexamer): 6.5 ± 0.3 x 10^4 M^−1s^−1
- EC50 (HIV-1BaL): 0.032 nM
- EC50 ([8]; Human immunodeficiency virus 1): 0.025 nM
- EC50 ([8]; Human immunodeficiency virus 1, HEK-293T): 0.439 nM
- EC50 ([8]; Human immunodeficiency virus 1, MT2): 0.023 nM
- EC50 (clinical HIV-1 isolates; read-out: EC50 range): 0.02 to 0.16 nM
- EC50 (clinical HIV-1 isolates; read-out: mean EC50): 0.05 nM
- CD9 / paEC95 (mean), fold EC95 coverage on day 9 ([9]; 20 mg SC): 0.67
- CD9 / paEC95 (mean), fold EC95 coverage on day 9 ([9]; 50 mg SC): 1.14
- CD9 / paEC95 (mean), fold EC95 coverage on day 9 ([9]; 150 mg SC): 3.33
- CD9 / paEC95 (mean), fold EC95 coverage on day 9 ([9]; 450 mg SC): 9.87
- concentration at 9 day ([9]; 20 mg): 2.58 ng/mL
- concentration at 9 day ([9]; 50 mg): 4.4 ng/mL
- concentration at 9 day ([9]; 150 mg): 12.9 ng/mL
- concentration at 9 day ([9]; 450 mg): 38.2 ng/mL
- CC50 (Cytotoxicity assay [10]): > 44.4 µM
- rate and extent of in vitro capsid assembly (HIV-1 CA protein): dose-dependent increase in the rate and extent of in vitro capsid assembly
